System: Rhizoctonia solani
Test: Soybean seed treatment test against disease caused by Rhizoctonia solani in contaminated soil
Assay type: in vivo, Rhizoctonia solani on soybean (variety: Natto shoryu)
Conditions: seed treatment of soybean; carboxamide compound 0.2 g/100 kg of seeds alone (no sulfoxaflor); cultivated 20 days in soil contaminated by Rhizoctonia solani
Procedure: A cyclohexanone solution (100 microL) containing prescribed amount (weight) of a test compound was applied on seeds of soybean (variety: Natto shoryu) (10 g) by using a rotary apparatus for seed treatment (Seed dresser, manufactured by Hans-Ulrich Hege GmbH). One day after the application, plastic pot was filled with soil contaminated by Rhizoctonia solani, and the seeds treated with the test compounds were seeded in the soil and cultivated in a glass-greenhouse for 20 days (hereinafter referred to as “treated plot”). Thereafter, the presence of disease caused by Rhizoctonia solani in the young plants which germinated from each seed was observed and disease severity was calculated according to the following calculation formula (1). On the other hand, seeds of soybean which are not treated as above were cultivated in the same way as above (hereinafter referred to as “non-treated plot”) and the disease severity in the “non-treated plot” was calculated in the same way as the above “treated plot”. On the basis of the above severity in “treated plot” and “non-treated plot”, efficacy in “treated plot” was evaluated according to the following calculation formula (2). […]

## Cc1nn(C)c(C)c1C(=O)Nc1cccc2c1C(C)CC2(C)C (stereo not shown) [carboxamide compound (5)]
  efficacy (%): 15.8%

Source: patent US20130059894A1, “PESTICIDAL COMPOSITION AND ITS USE” (SUMITOMO CHEMICAL COMPANY, LIMITED, priority 2010, published 2013)
